Measured values taken from article PMC7725003, “Systematically Studying the Optimal Amino Acid Distribution Patterns of the Amphiphilic Structure by Using the Ultrashort Amphiphiles” (Frontiers in Microbiology, 2020).
Where no end group is shown, it is not given here.

Legend:
[1] = test system: MRSA 43300; format: cell-based, methicillin-resistant S. aureus; details: 43300, 24 h
Procedure: (§1) The antimicrobial activities of the peptides were measured using a method adapted from the National Committee for Clinical Laboratory Standards (NCCLS) with some modifications ([Chou et al., 2016]). The specific procedure for these assays has been previously described. In brief, the bacterial cells were grown to a mid-logarithmic phase and diluted in MHB to an ultimate concentration of 0.5–1 × 10^6 CFU mL^–1. Subsequently, the peptides were consecutively diluted in a 0.2% BSA solution and then added to a bacterial solution in a 96-well plate at identical volumes. After incubation for 24 h at 37°C, the MICs were determined to be the lowest peptide concentration that inhibited 95% of the bacterial growth by monitoring the absorbance at 492 nm using a microplate reader. Subsequently, 50 μL of each incubation mixture was further transferred to agar plates and incubated overnight. The minimum bactericidal concentrations (MBCs) were determined as the lowest peptide concentration that killed greater than 99.9% of the bacterial cells. Every assay was reproduced more than 3 times.

[2] = test system: S. aureus 29213; experiment: Salt sensitivity assay (MIC); format: cell-based, Staphylococcus aureus; details: for MIC, FeCl3: 4 μM FeCl3; for MIC, NH4Cl: 6 μM NH4Cl; for MIC, ZnCl2: 8 μM ZnCl2; for MIC, MgCl2: 1 mM MgCl2; for MIC, CaCl2: 2 mM CaCl2; for MIC, KCl: 4.5 mM KCl; for MIC, NaCl: 150 mM NaCl; for MIC, Control: no added salt, three independent assays
Procedure: as §1
(§2) The salt sensitivities of the peptides were determined. E. coli ATCC 25922 and S. aureus ATCC 29213 were incubated in the presence of various ultimate concentrations of physiological salts (150 mM NaCl, 4.5 mM KCl, 6 μM NH4Cl, 8 μM ZnCl2, 1 mM MgCl2, 2mM CaCl2, and 4 μM FeCl3) according to our previous protocol ([Yang et al., 2019]). These tests were performed under the MICs, and three independent assays were performed.

[3] = test system: S. epidermidis 12228; format: cell-based, Staphylococcus epidermidis; details: 12228, 24 h
Procedure: as §1

[4] = test system: E. coli ATCC 25922; experiment: Salt sensitivity assay (MIC); format: cell-based, Escherichia coli; details: for MIC, FeCl3: 4 μM FeCl3; for MIC, NH4Cl: 6 μM NH4Cl; for MIC, ZnCl2: 8 μM ZnCl2; for MIC, MgCl2: 1 mM MgCl2; for MIC, CaCl2: 2 mM CaCl2; for MIC, KCl: 4.5 mM KCl; for MIC, NaCl: 150 mM NaCl; for MIC, Control: no added salt, three independent assays
Procedure: as §1, §2

[5] = test system: S. typhimurium 7731; format: cell-based, Salmonella typhimurium; details: 7731, 24 h
Procedure: as §1

[6] = test system: S. typhimurium 14028; format: cell-based, Salmonella typhimurium; details: 14028, 24 h
Procedure: as §1

[7] = test system: Listeria monocytogenes CGMCC 1.1075; format: cell-based; details: CGMCC 1.1075, 24 h
Procedure: as §1

[8] = test system: P. aeruginosa 27853; format: cell-based, Pseudomonas aeruginosa; details: 27853, 24 h
Procedure: as §1

[9] = test system: E. coli 25922; format: cell-based, Escherichia coli; details: 25922, 24 h
Procedure: as §1

[10] = test system: E. coli UB1005; format: cell-based, Escherichia coli; details: UB1005, 24 h
Procedure: as §1

[11] = test system: E. coli O78; format: cell-based, Escherichia coli; details: O78, 24 h
Procedure: as §1

[12] = test system: B. subtilis 63501; format: cell-based, Bacillus subtilis; details: 63501, 24 h
Procedure: as §1

[13] = test system: all of the tested bacterial strains; experiment: Geometric mean of MICs, all tested bacterial strains; format: cell-based; details: for GM, All: geometric mean of MICs across all tested strains; for TI, All: therapeutic index TI = MHC/GM MIC
Source text: The antimicrobial activity of AMPs is the most decisive index for evaluating the clinical application of antimicrobial drugs. Many antimicrobial agents inhibit bacterial growth rather than kill the bacteria quickly, and long-term infections are pathogens that are not completely killed, which results in bacterial severe drug resistance. […] The geometric mean (GM) values of the MICs/MBCs of the two series across all of the tested bacterial strains are represented in Table 3, which depicts the average bacteriostatic/bactericidal level of a peptide.
as §1

[14] = test system: E. faecalis 29212; format: cell-based, Enterococcus faecalis; details: 29212, 24 h
Procedure: as §1

[15] = test system: Gram-positive bacteria; details: for GM, Gram-positive bacteria: geometric mean of MICs (Table 3); for TI, Gram-positive bacteria: therapeutic index TI = MHC/GM MIC
Procedure: (§3) The antimicrobial activity of AMPs is the most decisive index for evaluating the clinical application of antimicrobial drugs.
as §1, with “The minimum bactericidal concentrations (MBCs) were determined as the lowest peptide concentration that killed greater than 99.9% of the bacterial cells.” left out

[16] = test system: Gram-negative bacteria; details: for GM, Gram-negative bacteria: geometric mean of MICs (Table 3); for TI, Gram-negative bacteria: therapeutic index TI = MHC/GM MIC
Procedure: as §3
as §1, with “The minimum bactericidal concentrations (MBCs) were determined as the lowest peptide concentration that killed greater than 99.9% of the bacterial cells.” left out

[17] = test system: S. aureus 29213; format: cell-based, Staphylococcus aureus; details: 29213, 24 h
Procedure: as §1

[18] = test system: S. aureus 25923; format: cell-based, Staphylococcus aureus; details: 25923, 24 h
Procedure: as §1

[19] = test system: S. pullorum 7913; format: cell-based, Salmonella pullorum; details: 7913, 24 h
Procedure: as §1

WRRRRWWWW-NH2 [W11]
MBC [1]: 4 µM
MIC [1]: 2 µM
MIC, FeCl3 [2]: 2 µM
MIC, NH4Cl [2]: 1 µM
MIC, ZnCl2 [2]: 2 µM
MIC, MgCl2 [2]: 2 µM
MIC, CaCl2 [2]: 2 µM
MIC, KCl [2]: 1 µM
MIC, NaCl [2]: 2 µM
MIC, Control [2]: 2 µM
MBC [3]: 4 µM
MIC [3]: 2 µM
MIC, FeCl3 [4]: 4 µM
MIC, NH4Cl [4]: 2 µM
MIC, ZnCl2 [4]: 2 µM
MIC, MgCl2 [4]: 8 µM
MIC, CaCl2 [4]: 16 µM
MIC, KCl [4]: 8 µM
MIC, NaCl [4]: 8 µM
MIC, Control [4]: 4 µM
MBC [5]: 16 µM
MIC [5]: 8 µM
MBC [6]: 16 µM
MIC [6]: 8 µM
MBC [7]: 8 µM
MIC [7]: 4 µM
MBC [8]: 16 µM
MIC [8]: 8 µM
MBC [9]: 8 µM
MIC [9]: 4 µM
MBC [10]: 8 µM
MIC [10]: 4 µM
MBC [11]: 16 µM
MIC [11]: 8 µM
MBC [12]: 2 µM
MIC [12]: 1 µM
GM, All [13]: 3.83 µM
TI, All [13]: 66.84
MBC [14]: 8 µM
MIC [14]: 4 µM
GM, Gram-positive bacteria [15]: 2.21 µM
TI, Gram-positive bacteria [15]: 115.84
GM, Gram-negative bacteria [16]: 5.88 µM
TI, Gram-negative bacteria [16]: 43.54
MBC [17]: 4 µM
MIC [17]: 2 µM
MBC [18]: 4 µM
MIC [18]: 2 µM
MBC [19]: 8 µM
MIC [19]: 4 µM

WRRRWWWWR-NH2 [W6]
MBC [1]: 4 µM
MIC [1]: 2 µM
MIC, FeCl3 [2]: 2 µM
MIC, NH4Cl [2]: 2 µM
MIC, ZnCl2 [2]: 2 µM
MIC, MgCl2 [2]: 4 µM
MIC, CaCl2 [2]: 4 µM
MIC, KCl [2]: 2 µM
MIC, NaCl [2]: 4 µM
MIC, Control [2]: 2 µM
MBC [3]: 8 µM
MIC [3]: 4 µM
MIC, FeCl3 [4]: 4 µM
MIC, NH4Cl [4]: 2 µM
MIC, ZnCl2 [4]: 4 µM
MIC, MgCl2 [4]: 8 µM
MIC, CaCl2 [4]: 16 µM
MIC, KCl [4]: 8 µM
MIC, NaCl [4]: 16 µM
MIC, Control [4]: 4 µM
MBC [5]: 16 µM
MIC [5]: 8 µM
MBC [6]: 16 µM
MIC [6]: 8 µM
MBC [7]: 4 µM
MIC [7]: 2 µM
MBC [8]: 16 µM
MIC [8]: 8 µM
MBC [9]: 8 µM
MIC [9]: 4 µM
MBC [10]: 8 µM
MIC [10]: 4 µM
MBC [11]: 8 µM
MIC [11]: 4 µM
MBC [12]: 2 µM
MIC [12]: 1 µM
GM, All [13]: 3.51 µM
TI, All [13]: 72.93
MBC [14]: 8 µM
MIC [14]: 4 µM
GM, Gram-positive bacteria [15]: 2.21 µM
TI, Gram-positive bacteria [15]: 115.84
GM, Gram-negative bacteria [16]: 5.04 µM
TI, Gram-negative bacteria [16]: 50.79
MBC [17]: 4 µM
MIC [17]: 2 µM
MBC [18]: 4 µM
MIC [18]: 2 µM
MBC [19]: 16 µM
MIC [19]: 8 µM
